Assay results: ChEMBL document CHEMBL5696441 (Nat Chem Biol, 2011)

How the values were obtained:
[1] = target: Mitogen-activated protein kinase kinase kinase kinase 1 (Homo sapiens) (UniProt Q92918); assay: Inhibition of HPK1 (unknown origin) assessed as remaining activity at 1 uM by Kinome scan method relative to control
[2] = target: T1, Serine/threonine-protein kinase Nek2 (Homo sapiens) (UniProt P51955); assay: Inhibition of NEK2 (unknown origin) assessed as remaining activity at 1 uM by Kinome scan method relative to control
T1 sequence (whole entry): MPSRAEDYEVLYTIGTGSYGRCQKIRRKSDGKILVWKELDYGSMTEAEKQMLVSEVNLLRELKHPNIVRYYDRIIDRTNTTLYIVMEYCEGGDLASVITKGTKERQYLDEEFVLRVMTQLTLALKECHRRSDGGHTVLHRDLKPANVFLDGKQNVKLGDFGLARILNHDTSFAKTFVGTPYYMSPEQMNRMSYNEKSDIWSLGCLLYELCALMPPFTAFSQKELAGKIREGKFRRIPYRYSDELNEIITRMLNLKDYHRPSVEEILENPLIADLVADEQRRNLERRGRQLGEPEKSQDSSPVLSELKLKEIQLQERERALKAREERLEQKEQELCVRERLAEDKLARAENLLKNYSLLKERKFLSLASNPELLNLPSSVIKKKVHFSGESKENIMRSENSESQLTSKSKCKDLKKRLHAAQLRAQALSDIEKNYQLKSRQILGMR

[3] = target: Phosphatidylinositol 4,5-bisphosphate 3-kinase catalytic subunit beta isoform (Homo sapiens) (UniProt P42338); assay: Inhibition of PIK3CB (unknown origin) assessed as remaining activity at 1 uM by Kinome scan method relative to control
Sequence of Phosphatidylinositol 4,5-bisphosphate 3-kinase catalytic subunit beta isoform (Homo sapiens) (P42338 whole entry, looked up, canonical isoform): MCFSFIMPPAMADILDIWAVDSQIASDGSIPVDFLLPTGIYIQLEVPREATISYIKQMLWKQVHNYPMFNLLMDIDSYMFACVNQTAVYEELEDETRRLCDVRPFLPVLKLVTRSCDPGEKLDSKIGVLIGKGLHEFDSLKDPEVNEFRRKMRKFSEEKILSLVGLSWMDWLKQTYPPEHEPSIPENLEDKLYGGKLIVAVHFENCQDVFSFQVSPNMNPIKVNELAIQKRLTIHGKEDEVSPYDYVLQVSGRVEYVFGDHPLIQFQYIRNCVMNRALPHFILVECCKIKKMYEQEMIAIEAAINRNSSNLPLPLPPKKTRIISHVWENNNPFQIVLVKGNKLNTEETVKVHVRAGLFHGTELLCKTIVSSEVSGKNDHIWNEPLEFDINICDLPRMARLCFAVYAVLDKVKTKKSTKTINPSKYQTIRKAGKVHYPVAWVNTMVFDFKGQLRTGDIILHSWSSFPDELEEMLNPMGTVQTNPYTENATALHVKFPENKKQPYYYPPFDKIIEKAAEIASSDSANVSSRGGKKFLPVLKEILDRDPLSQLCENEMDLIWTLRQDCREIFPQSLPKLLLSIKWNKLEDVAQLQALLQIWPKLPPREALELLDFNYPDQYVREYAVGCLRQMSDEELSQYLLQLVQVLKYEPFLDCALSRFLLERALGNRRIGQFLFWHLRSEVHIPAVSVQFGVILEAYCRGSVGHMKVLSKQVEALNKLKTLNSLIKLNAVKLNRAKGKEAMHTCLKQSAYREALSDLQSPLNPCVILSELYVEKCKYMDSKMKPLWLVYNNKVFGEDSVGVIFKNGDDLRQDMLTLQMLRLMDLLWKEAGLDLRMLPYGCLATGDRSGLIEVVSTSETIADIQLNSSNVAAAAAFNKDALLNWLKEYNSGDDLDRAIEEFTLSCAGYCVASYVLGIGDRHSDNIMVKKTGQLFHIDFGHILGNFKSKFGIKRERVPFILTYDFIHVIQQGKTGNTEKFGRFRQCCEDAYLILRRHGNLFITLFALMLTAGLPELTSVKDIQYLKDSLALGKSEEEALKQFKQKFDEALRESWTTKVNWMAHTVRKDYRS

[4] = target: Myosin light chain kinase 2, skeletal/cardiac muscle (Homo sapiens) (UniProt Q9H1R3); assay: Inhibition of MYLK2 (unknown origin) assessed as remaining activity at 1 uM by Kinome scan method relative to control
Sequence of Myosin light chain kinase 2, skeletal/cardiac muscle (Homo sapiens) (Q9H1R3 whole entry): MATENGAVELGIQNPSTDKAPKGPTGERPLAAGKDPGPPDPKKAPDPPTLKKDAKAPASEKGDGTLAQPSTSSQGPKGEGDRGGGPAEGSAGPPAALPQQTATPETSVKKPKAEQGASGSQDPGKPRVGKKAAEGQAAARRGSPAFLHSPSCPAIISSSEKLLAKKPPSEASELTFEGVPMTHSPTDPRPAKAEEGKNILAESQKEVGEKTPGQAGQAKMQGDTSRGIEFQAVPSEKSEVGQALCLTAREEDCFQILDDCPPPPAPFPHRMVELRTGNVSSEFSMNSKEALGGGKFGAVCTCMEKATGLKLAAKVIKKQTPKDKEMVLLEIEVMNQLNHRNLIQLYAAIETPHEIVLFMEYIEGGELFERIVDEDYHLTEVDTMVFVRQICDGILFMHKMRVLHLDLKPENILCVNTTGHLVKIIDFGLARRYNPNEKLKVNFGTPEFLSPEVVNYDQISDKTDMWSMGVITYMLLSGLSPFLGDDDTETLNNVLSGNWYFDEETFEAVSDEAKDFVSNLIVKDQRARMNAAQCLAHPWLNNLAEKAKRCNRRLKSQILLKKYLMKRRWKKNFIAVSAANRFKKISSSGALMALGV

[5] = target: Serine/threonine-protein kinase RIO1 (Homo sapiens) (UniProt Q9BRS2); assay: Inhibition of RIOK1 (unknown origin) assessed as remaining activity at 1 uM by Kinome scan method relative to control
[6] = target: Serine/threonine-protein kinase 35 (Homo sapiens) (UniProt Q8TDR2); assay: Inhibition of STK35 (unknown origin) assessed as remaining activity at 1 uM by Kinome scan method relative to control
Sequence of Serine/threonine-protein kinase 35 (Homo sapiens) (Q8TDR2 whole entry, the tested form may be a part): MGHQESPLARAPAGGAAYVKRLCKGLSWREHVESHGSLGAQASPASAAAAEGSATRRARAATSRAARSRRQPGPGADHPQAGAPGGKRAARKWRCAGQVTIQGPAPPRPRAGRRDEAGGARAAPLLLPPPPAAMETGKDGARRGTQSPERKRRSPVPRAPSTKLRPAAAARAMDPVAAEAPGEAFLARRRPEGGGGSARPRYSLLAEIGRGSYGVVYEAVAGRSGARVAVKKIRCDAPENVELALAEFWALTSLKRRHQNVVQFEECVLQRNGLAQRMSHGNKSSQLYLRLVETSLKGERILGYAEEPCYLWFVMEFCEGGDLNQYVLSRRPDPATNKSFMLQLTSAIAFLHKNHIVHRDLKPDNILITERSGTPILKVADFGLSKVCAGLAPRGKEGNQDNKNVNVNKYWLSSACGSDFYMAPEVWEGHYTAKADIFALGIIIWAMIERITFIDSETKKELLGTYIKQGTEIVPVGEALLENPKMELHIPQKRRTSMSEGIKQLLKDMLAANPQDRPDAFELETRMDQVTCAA

[7] = target: Tyrosine-protein kinase JAK2 (Homo sapiens) (UniProt O60674); assay: Inhibition of JAK2 JH1 domain (unknown origin) assessed as remaining activity at 1 uM by Kinome scan method relative to control
[8] = target: T2, Phosphorylase b kinase gamma catalytic chain, liver/testis isoform (Homo sapiens) (UniProt P15735); assay: Inhibition of PHKG2 (unknown origin) assessed as remaining activity at 1 uM by Kinome scan method relative to control
T2 sequence (whole entry): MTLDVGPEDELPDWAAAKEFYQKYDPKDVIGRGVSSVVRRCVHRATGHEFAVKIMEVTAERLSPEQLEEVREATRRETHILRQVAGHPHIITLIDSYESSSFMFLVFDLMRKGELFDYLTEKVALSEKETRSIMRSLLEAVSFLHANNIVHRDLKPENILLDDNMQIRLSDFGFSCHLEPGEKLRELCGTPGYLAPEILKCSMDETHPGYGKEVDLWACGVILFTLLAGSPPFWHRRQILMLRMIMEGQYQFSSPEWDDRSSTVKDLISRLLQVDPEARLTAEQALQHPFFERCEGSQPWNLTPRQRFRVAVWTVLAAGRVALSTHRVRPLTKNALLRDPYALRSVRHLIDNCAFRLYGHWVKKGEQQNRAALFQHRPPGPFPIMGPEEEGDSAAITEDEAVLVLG

[9] = target: Serine/threonine-protein kinase MARK1 (Homo sapiens) (UniProt Q9P0L2); assay: Inhibition of MARK1 (unknown origin) assessed as remaining activity at 1 uM by Kinome scan method relative to control
[10] = target: Macrophage-stimulating protein receptor (Homo sapiens) (UniProt Q04912); assay: Inhibition of MST1R (unknown origin) assessed as remaining activity at 1 uM by Kinome scan method relative to control
[11] = tested on: Phosphatidylinositol 4,5-bisphosphate 3-kinase catalytic subunit alpha isoform (Homo sapiens), P42336 [C420R]; assay: Inhibition of PIK3CA C420R mutant (unknown origin) assessed as remaining activity at 1 uM by Kinome scan method relative to control
Sequence of Phosphatidylinositol 4,5-bisphosphate 3-kinase catalytic subunit alpha isoform (Homo sapiens), P42336 [C420R] (P42336 whole entry C420R, canonical isoform): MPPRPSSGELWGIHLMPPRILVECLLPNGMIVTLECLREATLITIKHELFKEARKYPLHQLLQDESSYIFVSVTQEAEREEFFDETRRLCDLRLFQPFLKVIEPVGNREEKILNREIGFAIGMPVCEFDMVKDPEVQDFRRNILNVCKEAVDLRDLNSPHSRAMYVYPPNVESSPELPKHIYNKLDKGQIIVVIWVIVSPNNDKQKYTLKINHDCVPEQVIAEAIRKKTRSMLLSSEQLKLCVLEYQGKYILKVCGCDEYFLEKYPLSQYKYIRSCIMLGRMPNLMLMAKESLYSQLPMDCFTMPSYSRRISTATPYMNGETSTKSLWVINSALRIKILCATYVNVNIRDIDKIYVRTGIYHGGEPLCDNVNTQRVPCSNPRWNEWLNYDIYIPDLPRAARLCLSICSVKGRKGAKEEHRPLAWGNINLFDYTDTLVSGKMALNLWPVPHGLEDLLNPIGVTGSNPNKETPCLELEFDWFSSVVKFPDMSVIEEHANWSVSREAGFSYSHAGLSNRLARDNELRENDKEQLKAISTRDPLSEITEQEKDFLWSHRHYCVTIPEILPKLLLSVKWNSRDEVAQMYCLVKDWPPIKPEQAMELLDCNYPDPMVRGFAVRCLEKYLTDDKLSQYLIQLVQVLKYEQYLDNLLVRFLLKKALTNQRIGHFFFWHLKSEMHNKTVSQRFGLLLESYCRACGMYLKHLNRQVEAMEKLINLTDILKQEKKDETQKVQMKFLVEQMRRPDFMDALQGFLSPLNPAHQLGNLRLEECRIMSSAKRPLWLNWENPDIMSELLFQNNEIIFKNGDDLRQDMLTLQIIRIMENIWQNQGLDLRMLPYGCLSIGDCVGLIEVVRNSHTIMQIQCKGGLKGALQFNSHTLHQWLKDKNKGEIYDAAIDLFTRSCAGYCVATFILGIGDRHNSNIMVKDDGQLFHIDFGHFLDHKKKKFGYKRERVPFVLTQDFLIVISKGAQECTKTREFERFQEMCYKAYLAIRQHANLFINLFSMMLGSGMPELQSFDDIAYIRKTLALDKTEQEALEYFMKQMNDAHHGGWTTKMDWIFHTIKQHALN

[12] = target: Fibroblast growth factor receptor 2 (Homo sapiens) (UniProt P21802); assay: Inhibition of FGFR2 (unknown origin) assessed as remaining activity at 1 uM by Kinome scan method relative to control
Sequence of Fibroblast growth factor receptor 2 (Homo sapiens) (P21802 22-821 limits assumed): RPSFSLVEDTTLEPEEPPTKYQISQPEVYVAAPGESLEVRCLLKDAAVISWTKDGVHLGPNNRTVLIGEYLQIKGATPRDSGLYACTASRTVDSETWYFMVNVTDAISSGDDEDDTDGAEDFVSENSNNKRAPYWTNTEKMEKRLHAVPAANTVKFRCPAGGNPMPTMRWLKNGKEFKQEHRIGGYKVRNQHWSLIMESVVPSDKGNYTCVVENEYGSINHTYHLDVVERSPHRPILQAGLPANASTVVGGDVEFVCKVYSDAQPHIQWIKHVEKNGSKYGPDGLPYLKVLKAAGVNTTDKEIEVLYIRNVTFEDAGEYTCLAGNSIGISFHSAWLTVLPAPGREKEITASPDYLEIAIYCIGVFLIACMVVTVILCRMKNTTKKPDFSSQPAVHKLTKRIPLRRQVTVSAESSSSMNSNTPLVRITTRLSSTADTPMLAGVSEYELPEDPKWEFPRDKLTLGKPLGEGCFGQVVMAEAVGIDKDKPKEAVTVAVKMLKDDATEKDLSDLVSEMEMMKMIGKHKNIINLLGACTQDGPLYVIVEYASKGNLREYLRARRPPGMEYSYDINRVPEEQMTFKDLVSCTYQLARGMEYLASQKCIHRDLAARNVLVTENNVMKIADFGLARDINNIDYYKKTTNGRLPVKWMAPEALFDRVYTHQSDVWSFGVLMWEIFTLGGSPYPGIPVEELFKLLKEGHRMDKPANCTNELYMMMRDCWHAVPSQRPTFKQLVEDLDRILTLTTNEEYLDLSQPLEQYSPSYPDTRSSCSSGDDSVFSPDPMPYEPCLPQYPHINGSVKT

[13] = target: STE20/SPS1-related proline-alanine-rich protein kinase (Homo sapiens) (UniProt Q9UEW8); assay: Inhibition of STK39 (unknown origin) assessed as remaining activity at 1 uM by Kinome scan method relative to control
[14] = target: Membrane-associated tyrosine- and threonine-specific cdc2-inhibitory kinase (Homo sapiens) (UniProt Q99640); assay: Inhibition of PKMYT1 (unknown origin) assessed as remaining activity at 1 uM by Kinome scan method relative to control
[15] = target: T3, Mitogen-activated protein kinase 12 (Homo sapiens) (UniProt P53778); assay: Inhibition of P38gamma (unknown origin) assessed as remaining activity at 1 uM by Kinome scan method relative to control
T3 sequence (whole entry): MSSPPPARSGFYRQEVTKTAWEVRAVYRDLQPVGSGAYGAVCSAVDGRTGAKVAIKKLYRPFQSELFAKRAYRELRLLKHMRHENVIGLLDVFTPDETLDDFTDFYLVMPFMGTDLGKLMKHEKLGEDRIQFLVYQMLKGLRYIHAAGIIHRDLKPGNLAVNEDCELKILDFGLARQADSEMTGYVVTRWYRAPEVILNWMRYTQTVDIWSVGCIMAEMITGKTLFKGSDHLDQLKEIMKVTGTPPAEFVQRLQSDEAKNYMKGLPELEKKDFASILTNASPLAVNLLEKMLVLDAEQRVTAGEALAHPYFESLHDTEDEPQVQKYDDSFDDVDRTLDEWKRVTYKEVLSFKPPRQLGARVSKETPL

[16] = target: Mitogen-activated protein kinase kinase kinase kinase 3 (Homo sapiens) (UniProt Q8IVH8); assay: Inhibition of MAP4K3 (unknown origin) assessed as remaining activity at 1 uM by Kinome scan method relative to control
Sequence of Mitogen-activated protein kinase kinase kinase kinase 3 (Homo sapiens) (Q8IVH8 whole entry): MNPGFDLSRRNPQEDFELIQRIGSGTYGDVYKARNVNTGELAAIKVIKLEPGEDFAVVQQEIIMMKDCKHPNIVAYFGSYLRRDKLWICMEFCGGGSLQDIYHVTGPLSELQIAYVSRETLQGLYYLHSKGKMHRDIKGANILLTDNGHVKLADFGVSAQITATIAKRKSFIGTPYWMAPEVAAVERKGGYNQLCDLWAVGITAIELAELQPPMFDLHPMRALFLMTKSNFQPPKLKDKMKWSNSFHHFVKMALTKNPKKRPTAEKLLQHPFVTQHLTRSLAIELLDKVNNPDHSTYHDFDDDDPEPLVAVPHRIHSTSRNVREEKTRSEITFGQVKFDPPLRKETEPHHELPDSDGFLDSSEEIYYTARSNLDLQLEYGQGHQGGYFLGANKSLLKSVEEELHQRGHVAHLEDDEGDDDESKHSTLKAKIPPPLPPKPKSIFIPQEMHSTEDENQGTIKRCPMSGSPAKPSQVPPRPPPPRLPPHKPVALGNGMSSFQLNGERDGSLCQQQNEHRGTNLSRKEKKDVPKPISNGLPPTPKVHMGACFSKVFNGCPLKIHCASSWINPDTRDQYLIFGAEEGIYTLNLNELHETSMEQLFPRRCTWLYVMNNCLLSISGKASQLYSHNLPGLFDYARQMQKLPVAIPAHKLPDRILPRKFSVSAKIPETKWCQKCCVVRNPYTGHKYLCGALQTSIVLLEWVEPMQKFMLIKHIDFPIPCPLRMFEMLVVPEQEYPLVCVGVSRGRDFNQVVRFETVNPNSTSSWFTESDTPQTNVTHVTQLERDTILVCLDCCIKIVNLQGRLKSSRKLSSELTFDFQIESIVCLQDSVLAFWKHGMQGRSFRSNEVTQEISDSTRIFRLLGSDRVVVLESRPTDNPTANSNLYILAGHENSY

Row | SMILES | Activity [1] | Activity [2] | Activity [3] | Activity [4] | Activity [5] | Activity [6] | Activity [7] | Activity [8] | Activity [9] | Activity [10] | Activity [11] | Activity [12] | Activity [13] | Activity [14] | Activity [15] | Activity [16]
1 | Nc1ccccc1Nc1ccc2c(c1)CCc1ccccc1C2=O | 96% | 90% | 88% | 87% | 94% | 80% | 80% | 98% | 88% | 97% | 91% | 91% | 77% | 64% | 98% | 75%
2 | O=C1c2ccc(Nc3ccc(F)cc3F)cc2CCc2ccc(OC[C@H](O)CO)cc21 [Skepinone-L] | 85% | 94% | 96% | 90% | 95% | 95% | 100% | 96% | 93% | 79% | 100% | 98% | 93% | 85% | 88% | 88%
